Test results: US12077503B2, “Substituted cyclic amides and their use as herbicides” (FMC CORPORATION, priority 2015, dated 2024)

How the values were obtained:
Assay type in all cases: in vivo
[1] = test system: ryegrass, Italian (Italian ryegrass, Lolium multiflorum); experiment: Test A postemergence; conditions: Lolium multiflorum, post-emergence, 240 h
Procedure, shortened: (§1)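 Greenhouse, ~10 d after spray; visual injury vs untreated controls, 0 = no effect, 100 = complete control. Preemergence: directed soil spray over planted seeds. Postemergence: plants 2–10 cm, 1–2 leaf stage. Loam/sand blend. Compound in non-phytotoxic solvent with surfactant.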

[2] = test system: wheat (Triticum aestivum); experiment: Test A postemergence; conditions: Triticum aestivum, post-emergence, 240 h
Procedure, shortened: as §1

[3] = test system: corn (Zea mays); experiment: Test A postemergence; conditions: Zea mays, post-emergence, 240 h
Procedure, shortened: as §1

[4] = test system: barnyardgrass (Echinochloa crus-galli); experiment: Test A postemergence; conditions: Echinochloa crus-galli, post-emergence, 240 h
Procedure, shortened: as §1

[5] = test system: blackgrass (Alopecurus myosuroides); experiment: Test A postemergence; conditions: Alopecurus myosuroides, post-emergence, 240 h
Procedure, shortened: as §1

[6] = test system: giant foxtail (Setaria faberii); experiment: Test A postemergence; conditions: Setaria faberi, post-emergence, 240 h
Procedure, shortened: as §1

[7] = test system: Kochia (Kochia scoparia); experiment: Test A postemergence; conditions: Bassia scoparia, post-emergence, 240 h
Procedure, shortened: as §1

[8] = test system: ragweed (common ragweed, Ambrosia elatior); experiment: Test A postemergence; conditions: Ambrosia artemisiifolia, post-emergence, 240 h
Procedure, shortened: as §1

[9] = test system: pigweed (Amaranthus retroflexus); experiment: Test A postemergence; conditions: Amaranthus retroflexus, post-emergence, 240 h
Procedure, shortened: as §1

[10] = test system: Galium (catchweed bedstraw, Galium aparine); experiment: Test A postemergence; conditions: Galium, post-emergence, 240 h
Procedure, shortened: as §1

[11] = test system: rice (Oryra sativa); experiment: Test B flooded paddy test; conditions: Oryza sativa, 250 g ai/ha, Flood; 0 to 100 scale where 0 is no effect and 100 is complete control; read-out: Rice plant response rating
Procedure, shortened: (§2)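 Evaluation by eye, against controls, occurred 13–15 d post-treatment in a greenhouse, using a 0 (no effect) to 100 (complete control) scale. Application was into the paddy water, 3 cm deep over the soil, on 2-leaf plants.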

[12] = test system: ducksalad (Heteranthera limosa); experiment: Test B flooded paddy test; conditions: Heteranthera limosa, 250 g ai/ha, Flood; 0 to 100 scale where 0 is no effect and 100 is complete control; read-out: Ducksalad plant response rating
Procedure, shortened: as §2

[13] = test system: barnyardgrass (Echinochloa crus-galli); experiment: Test B flooded paddy test; conditions: Echinochloa crus-galli, 250 g ai/ha, Flood; 0 to 100 scale where 0 is no effect and 100 is complete control; read-out: Barnyardgrass plant response rating
Procedure, shortened: as §2

[14] = test system: sedge, umbrella (small-flower umbrella sedge, Cyperus difformis); experiment: Test B flooded paddy test; conditions: Cyperus difformis, 250 g ai/ha, Flood; 0 to 100 scale where 0 is no effect and 100 is complete control; read-out: Sedge, Umbrella plant response rating
Procedure, shortened: as §2

[15] = test system: ryegrass, Italian (Italian ryegrass, Lolium multiflorum); experiment: Test A preemergence; conditions: Lolium multiflorum, pre-emergence, 240 h, 0 to 100 scale where 0 is no effect and 100 is complete control, read-out: Ryegrass, Italian plant response rating
Procedure, shortened: as §1

[16] = test system: barnyardgrass (Echinochloa crus-galli); experiment: Test A preemergence; conditions: Echinochloa crus-galli, pre-emergence, 240 h, 0 to 100 scale where 0 is no effect and 100 is complete control, read-out: Barnyardgrass plant response rating
Procedure, shortened: as §1

[17] = test system: giant foxtail (Setaria faberii); experiment: Test A preemergence; conditions: Setaria faberi, pre-emergence, 240 h, 0 to 100 scale where 0 is no effect and 100 is complete control, read-out: Foxtail, Giant plant response rating
Procedure, shortened: as §1

[18] = test system: Kochia (Kochia scoparia); experiment: Test A preemergence; conditions: Bassia scoparia, pre-emergence, 240 h, 0 to 100 scale where 0 is no effect and 100 is complete control, read-out: Kochia plant response rating
Procedure, shortened: as §1

[19] = test system: ragweed (common ragweed, Ambrosia elatior); experiment: Test A preemergence; conditions: Ambrosia artemisiifolia, pre-emergence, 240 h, 0 to 100 scale where 0 is no effect and 100 is complete control, read-out: Ragweed plant response rating
Procedure, shortened: as §1

[20] = test system: pigweed (Amaranthus retroflexus); experiment: Test A preemergence; conditions: Amaranthus retroflexus, pre-emergence, 240 h, 0 to 100 scale where 0 is no effect and 100 is complete control, read-out: Pigweed plant response rating
[21] = 125 g ai/ha, preemergence, approx. 10 d

Question: With `Cc1ccc([C@H]2CN(C)C(=O)[C@@H]2C(=O)Nc2cnccc2C)cc1` [Compound 1070] as the compound, how does the pest or weed control at 125 g/ha ([1]; 125 g ai/ha, postemergence, visual injury on 0 to 100 scale (0 no effect, 100 complete control), approx. 10 d, read-out: Ryegrass, Italian plant response rating) read?
Answer: Its pest or weed control at 125 g/ha is 0%.

Question: And the pest or weed control at 31 g/ha ([1]; Postemergence, 31 g ai/ha, visual injury after approx. 10 d, 0 to 100 scale, 0 no effect, 100 complete control, read-out: Plant response rating, Ryegrass, Italian)?
Answer: The pest or weed control at 31 g/ha was 0%.

Question: And the plant injury at 125 g/ha ([2]; 125 g ai/ha, postemergence, visual injury on 0 to 100 scale (0 no effect, 100 complete control), approx. 10 d, read-out: Wheat plant response rating)?
Answer: Its plant injury at 125 g/ha is 0%.

Question: And the plant injury at 31 g/ha ([2]; Postemergence, 31 g ai/ha, visual injury after approx. 10 d, 0 to 100 scale, 0 no effect, 100 complete control, read-out: Plant response rating, Wheat)?
Answer: The plant injury at 31 g/ha was 0%.

Question: What about the plant injury at 125 g/ha ([3]; 125 g ai/ha, postemergence, visual injury on 0 to 100 scale (0 no effect, 100 complete control), approx. 10 d, read-out: Corn plant response rating) of the same compound?
Answer: The plant injury at 125 g/ha was 0%.

Question: And the Corn plant response rating (crop injury, 0 = no effect, 100 = complete kill) at 31 g/ha ([3]; Postemergence, 31 g ai/ha, visual injury after approx. 10 d, 0 to 100 scale, 0 no effect, 100 complete control)?
Answer: Its Corn plant response rating (crop injury, 0 = no effect, 100 = complete kill) at 31 g/ha is 0%.

Question: What about the pest or weed control at 125 g/ha ([4]; 125 g ai/ha, postemergence, visual injury on 0 to 100 scale (0 no effect, 100 complete control), approx. 10 d, read-out: Barnyardgrass plant response rating) of the same compound?
Answer: Its pest or weed control at 125 g/ha is 0%.

Question: What about the pest or weed control at 31 g/ha ([4]; Postemergence, 31 g ai/ha, visual injury after approx. 10 d, 0 to 100 scale, 0 no effect, 100 complete control, read-out: Plant response rating, Barnyardgrass) of the same compound?
Answer: The pest or weed control at 31 g/ha was 0%.

Question: And the pest or weed control at 125 g/ha ([5]; 125 g ai/ha, postemergence, visual injury on 0 to 100 scale (0 no effect, 100 complete control), approx. 10 d, read-out: Blackgrass plant response rating)?
Answer: The pest or weed control at 125 g/ha was 0%.

Question: And the pest or weed control at 31 g/ha ([5]; Postemergence, 31 g ai/ha, visual injury after approx. 10 d, 0 to 100 scale, 0 no effect, 100 complete control, read-out: Plant response rating, Blackgrass)?
Answer: The pest or weed control at 31 g/ha was 0%.

Question: What about the pest or weed control at 125 g/ha ([6]; 125 g ai/ha, postemergence, visual injury on 0 to 100 scale (0 no effect, 100 complete control), approx. 10 d, read-out: Foxtail, Giant plant response rating) of the same compound?
Answer: Its pest or weed control at 125 g/ha is 0%.

Question: What about the pest or weed control at 31 g/ha ([6]; Postemergence, 31 g ai/ha, visual injury after approx. 10 d, 0 to 100 scale, 0 no effect, 100 complete control, read-out: Plant response rating, Foxtail, Giant) of the same compound?
Answer: Its pest or weed control at 31 g/ha is 0%.

Question: And the pest or weed control at 125 g/ha ([7]; 125 g ai/ha, postemergence, visual injury on 0 to 100 scale (0 no effect, 100 complete control), approx. 10 d, read-out: Kochia plant response rating)?
Answer: Its pest or weed control at 125 g/ha is 0%.

Question: What about the pest or weed control at 31 g/ha ([7]; Postemergence, 31 g ai/ha, visual injury after approx. 10 d, 0 to 100 scale, 0 no effect, 100 complete control, read-out: Plant response rating, Kochia) of the same compound?
Answer: The pest or weed control at 31 g/ha was 0%.

Question: And the pest or weed control at 125 g/ha ([8]; 125 g ai/ha, postemergence, visual injury on 0 to 100 scale (0 no effect, 100 complete control), approx. 10 d, read-out: Ragweed plant response rating)?
Answer: Its pest or weed control at 125 g/ha is 0%.

Question: What about the pest or weed control at 31 g/ha ([8]; Postemergence, 31 g ai/ha, visual injury after approx. 10 d, 0 to 100 scale, 0 no effect, 100 complete control, read-out: Plant response rating, Ragweed) of the same compound?
Answer: Its pest or weed control at 31 g/ha is 0%.

Question: What about the pest or weed control at 125 g/ha ([9]; 125 g ai/ha, postemergence, visual injury on 0 to 100 scale (0 no effect, 100 complete control), approx. 10 d, read-out: Pigweed plant response rating) of the same compound?
Answer: Its pest or weed control at 125 g/ha is 0%.

Question: What about the pest or weed control at 31 g/ha ([9]; Postemergence, 31 g ai/ha, visual injury after approx. 10 d, 0 to 100 scale, 0 no effect, 100 complete control, read-out: Plant response rating, Pigweed) of the same compound?
Answer: The pest or weed control at 31 g/ha was 0%.

Question: What about the pest or weed control at 125 g/ha ([10]; 125 g ai/ha, postemergence, visual injury on 0 to 100 scale (0 no effect, 100 complete control), approx. 10 d, read-out: Galium plant response rating) of the same compound?
Answer: The pest or weed control at 125 g/ha was 0%.

Question: And the pest or weed control at 31 g/ha ([10]; Postemergence, 31 g ai/ha, visual injury after approx. 10 d, 0 to 100 scale, 0 no effect, 100 complete control, read-out: Plant response rating, Galium)?
Answer: Its pest or weed control at 31 g/ha is 0%.

Question: And the pest or weed control at 250 g/ha [11]?
Answer: The pest or weed control at 250 g/ha was 0%.

Question: And the pest or weed control at 250 g/ha [12]?
Answer: The pest or weed control at 250 g/ha was 80%.

Question: What about the pest or weed control at 250 g/ha [13] of the same compound?
Answer: Its pest or weed control at 250 g/ha is 0%.

Question: What about the pest or weed control at 250 g/ha [14] of the same compound?
Answer: Its pest or weed control at 250 g/ha is 0%.

Question: What about the pest or weed control at 31 g/ha ([15]; 31 g ai/ha, Preemergence) of the same compound?
Answer: The pest or weed control at 31 g/ha was 0%.

Question: And the pest or weed control at 125 g/ha [15, 21]?
Answer: Its pest or weed control at 125 g/ha is 0%.

Question: What about the pest or weed control at 31 g/ha ([16]; 31 g ai/ha, Preemergence) of the same compound?
Answer: Its pest or weed control at 31 g/ha is 0%.

Question: And the pest or weed control at 125 g/ha [16, 21]?
Answer: The pest or weed control at 125 g/ha was 0%.

Question: What about the pest or weed control at 31 g/ha ([17]; 31 g ai/ha, Preemergence) of the same compound?
Answer: The pest or weed control at 31 g/ha was 0%.

Question: What about the pest or weed control at 125 g/ha [17, 21] of the same compound?
Answer: The pest or weed control at 125 g/ha was 60%.

Question: And the pest or weed control at 31 g/ha ([18]; 31 g ai/ha, Preemergence)?
Answer: The pest or weed control at 31 g/ha was 0%.

Question: What about the pest or weed control at 125 g/ha [18, 21] of the same compound?
Answer: Its pest or weed control at 125 g/ha is 0%.

Question: What about the pest or weed control at 31 g/ha ([19]; 31 g ai/ha, Preemergence) of the same compound?
Answer: Its pest or weed control at 31 g/ha is 0%.

Question: And the pest or weed control at 125 g/ha [19, 21]?
Answer: The pest or weed control at 125 g/ha was 0%.

Question: And the pest or weed control at 31 g/ha ([20]; 31 g ai/ha, Preemergence)?
Answer: The pest or weed control at 31 g/ha was 0%.

Question: And the pest or weed control at 125 g/ha [20, 21]?
Answer: Its pest or weed control at 125 g/ha is 0%.
